Consider three compounds from PMC4254627 (Bioorganic & medicinal chemistry letters, 2014).

Each structure is given as a SMILES string. “Also recorded” adds a separate entry of the source.

Data set [1] can be described thus: Solubility / precipitation behaviour in pH 7.4 buffer. It is filed as physicochemical.
A short description of the next data set: Stability. Particulars: 50% HP vs pH 7.4 buffer. The data set is classed as in vitro ADME, human.

With `CCC(C)[C@H](N)C(=O)O[C@@H]1CC[C@@]2(O)[C@H]3Cc4ccc(O)c5c4[C@@]2(CCN3CC2CC2)[C@H]1O5` (stereo partly drawn) [Prodrug 6d], the “solubility in pH 7.4 buffer” value in data set [1] is reported as “highly insoluble; also recorded: precipitate”.

With `NCCC(=O)O[C@@H]1CC[C@@]2(O)[C@H]3Cc4ccc(O)c5c4[C@@]2(CCN3CC2CC2)[C@H]1O5` [Prodrug 6e], in the data set “Stability”, the “reduction of half-life in HP compared to pH 7.4 PBS buffer” value is on record as “approximately 5.4 fold”.

With `CC(C)[C@H](N)C(=O)O[C@@H]1CC[C@@]2(O)[C@H]3Cc4ccc(O)c5c4[C@@]2(CCN3CC2CC2)[C@H]1O5` [Prodrug 6b], in data set [1], the “solubility in pH 7.4 buffer” value is “precipitate”.
